Consider one substance from patent US20190015379A1, “USE OF DIANHYDROGALACTITOL AND ANALOGS AND DERIVATIVES THEREOF, TOGETHER WITH RADIATION, TO TREAT NON-SMALL-CELL CARCINOMA OF THE LUNG AND GLIOBLASTOMA MULTIFORME AND SUPPRESS PROLIFERATION OF CANCER STEM CELLS” (DelMar Pharmaceuticals, Inc., priority 2014, published 2019).

The nature of series [1]: Tolerability in A549 tumor-bearing Rag2 mice (body weight, CBC, clinical observations). As for the experimental part: Tumor growth was monitored by measuring tumor dimensions with calipers beginning on the first day of treatment. Tumor length and width measurements were obtained each Monday, Wednesday, and Friday. Tumor volumes were calculated according to the equation L×W^2/2 with the length (in mm) being defined as the longer axis of the tumor. Animals were weighed at the time of tumor measurement. Tumors were allowed to grow to a maximum of 800 mm^3 before termination.
All animals had blood collected by cardiac puncture at termination for CBC (complete blood count) with differentiation.
In particular, signs of ill-health were based on body weight loss, change in appetite, and behavioral signs such as altered gait, lethargy, and gross manifestations of stress. If signs of severe toxicity or tumor-related illness were seen, the animals were terminated by isoflurane overdose followed by CO2 asphyxiation, and a necropsy was performed to assess other signs of toxicity. The following organs were examined: liver, gall bladder, spleen, lung, kidney, heart, intestine, lymph nodes, and bladder. Any unusual findings were noted.

The subject of series [2] is CSC and non-CSC cultures derived from primary GBM tissue. Put plainly: Cell cycle analysis (propidium iodide staining, FACS) in primary GBM cultures. The format is cell-based, human. On the procedure:
“GAPDH” refers to glyceraldehyde-3-phosphate dehydrogenase as a control. For the cell cultures, CSCs were cultured in NSA media supplemented with B27, EGF and bFGF. Non-CSCs were grown in DMEM:F12 with 10% FBS. MGMT methylation and protein expression analysis of each culture was characterized. TMZ or VAL-083 was added to the cultures in the indicated concentrations. Depending on the experiment, cells were also irradiated with 2 Gy in a Cesium irradiator. For assays, cell cycle analysis was performed with Propidium Iodide staining and FACs analysis. Cell viability was analyzed with CellTiter-Glo™ and read on a Promega GloMax™. […] In FIG. 4, “1° GBM” refers to primary glioblastoma multiforme cell cultures.
In FIG. 16, cells were treated with either increasing doses of TMZ (5, 50 100 and 200 μM) or dianhydrogalactitol (“VAL-083”) (1, 5, 25 and 100 μM) and cell cycle analysis was performed 4 days post treatment.
Additional experiments were performed to test the effect of the duration of drug administration. […] Dianhydrogalactitol was left on for the duration of the treatment.

For series [3], the system named is recurrent glioblastoma multiforme (GBM). Description: Phase I/II dose-escalation study, tumor response in GBM patients. The series is classed as in vivo, human. From the text: The methodology of the study reported in this Example is as follows: An open-label, single arm Phase I/II dose-escalation study designed to evaluate the safety, tolerability, pharmacokinetics and anti-tumor activity of dianhydrogalactitol in patients with: (i) histologically confirmed initial diagnosis of primary WHO Grade IV malignant GBM, now recurrent, or (ii) progressive secondary brain tumor, having failed standard brain radiotherapy, and with brain tumor progression after at least one line of systemic therapy. The study utilizes a 3+3 dose escalation design, until the MTD or the maximum specified dose is reached. Patients receive dianhydrogalactitol intravenously at the assigned dose on days 1, 2, and 3 of each 21-day treatment cycle. In Phase II, additional patients will be treated at the MTD (or other selected optimum Phase II dose) to measure tumor responses. All patients enrolled have previously been treated with surgery and/or radiation, if appropriate, and must have failed both bevacizumab and TMZ, unless contraindicated. For these studies, the following is a summary of the inclusion criteria: (1) Patients must be greater than or equal to 18 years old. (2) There is a histologically confirmed initial diagnosis of primary WHO Grade IV malignant glioma (glioblastoma), now recurrent, or progressive secondary brain tumor, the patient has failed standard brain radiotherapy, and the patient has brain tumor progression after at least one line of systemic therapy. […] (4) The patient must have a predicted life expectancy of at least 12 weeks. The following is a summary of the exclusion criteria: (1) There is a current history of neoplasm other than the entry diagnosis. Patients with previous cancers treated and cured with local therapy alone may be considered. (2) There is evidence of leptomeningeal spread of disease. […] (4) The patient had undergone prior treatment with intracerebral agents. […] (6) The patient is being administered concomitant medications that are strong inhibitors of cytochrome P450 and CYP3A up to 14 days before Cycle 1, Day 1 (pimozide, diltiazem, erythromycin, clarithromycin, and quinidine, and amiodarone up to 90 days before.
Enrollment and evaluation of Cohort 7 (40 mg/m^2) is ongoing. Higher doses may be enrolled subject to completion of mandated safety observation period with Cohort 6 (30 mg/m^2). Patients enrolled present with refractory progressive GBM and a dire prognosis. […] The primary endpoint of this portion of the study is to determine a modernized dosing regimen for advancement to registration-directed clinical trials. […] In this design, it is not possible to perform a rigorous assessment of patient benefit due to slowed tumor growth. Tumor volume is assessed during the study based on RANO criteria. […] Outcomes analysis of cohort 6 is ongoing. These preliminary data support continued exploration of higher dose cohorts.

The nature of series [4]: Stability of reconstituted dianhydrogalactitol stock solution. The series is classed as physicochemical. The following applies: 8 mg/mL in 0.9% sodium chloride for injection. On the procedure: Dianhydrogalactitol (DAG) was provided as a lyophilized product at 40 mg of DAG per vial. For administration, 5 mL of 0.9% sodium chloride for injection, USP (saline) was added to yield a DAG solution with a concentration of 8 mg/mL. This stock solution was stable for 4 hours at room temperature or for 24 hours at 4° C. Further dilutions were made to prepare solutions of injection of 0.9 mg/mL (for administration of 0.18 mg/mouse in 0.2 mL; diluted from the 8 mg/mL reconstituted solution); of 0.45 mg/mL (for administration of 0.09 mg/mouse in 0.2 mL; a 1 to 2 dilution of the 0.9 mg/mL solution); and of 0.225 mg/mL (for administration of 0.045 mg/mouse in 0.2 mL; a 1 to 2 dilution of the 0.45 mg/mL solution).

A further series deals with GBM. The settings on record: cited from earlier work.
A short description of series [5]: Phase I/II dose-escalation study, plasma pharmacokinetics. The format is in vivo, human. From the text: The methodology of the study reported in this Example is as follows: An open-label, single arm Phase I/II dose-escalation study designed to evaluate the safety, tolerability, pharmacokinetics and anti-tumor activity of dianhydrogalactitol in patients with: (i) histologically confirmed initial diagnosis of primary WHO Grade IV malignant GBM, now recurrent, or (ii) progressive secondary brain tumor, having failed standard brain radiotherapy, and with brain tumor progression after at least one line of systemic therapy. The study utilizes a 3+3 dose escalation design, until the MTD or the maximum specified dose is reached. Patients receive dianhydrogalactitol intravenously at the assigned dose on days 1, 2, and 3 of each 21-day treatment cycle. In Phase II, additional patients will be treated at the MTD (or other selected optimum Phase II dose) to measure tumor responses. All patients enrolled have previously been treated with surgery and/or radiation, if appropriate, and must have failed both bevacizumab and TMZ, unless contraindicated. For these studies, the following is a summary of the inclusion criteria: (1) Patients must be greater than or equal to 18 years old. […]

As for dianhydrogalactitol, the body weight loss result in series [1] (dianhydrogalactitol 6 mg/kg (group 5)) was “body weight loss was observed”. Moreover, in series [1] (dianhydrogalactitol 6 mg/kg, only 3 of 9 scheduled doses administered), the “tolerability of the dosage” value was “significant weight loss and morbidity”. In addition, the “hemoglobin (g/L), CBC at termination, versus untreated control” value in series [1] (groups 4 or 5 (dianhydrogalactitol 3 or 6 mg/kg)) was “Statistical significance (p<0.05)”. In series [2] (CSC and non-CSC cultures, FACS profiles (FIGS. 7-9)), the “cell death, concentration compared with temozolomide” value was “cause cell death at lower concentrations than temozolomide”. Further, the “cell cycle arrest in TMZ-resistant cultures” value in series [2] (VAL-083 1, 5, 25 and 100 μM, cell cycle analysis 4 days post treatment, paired CSC and non-CSC) is “exhibited sensitivity to VAL-083, even at single-micromolar doses”. For the same substance, the “cell cycle arrest and loss of cell viability, summary” value in series [2] (all cultures tested, independent of MGMT status and stem versus non-stem) was “cell cycle arrest and loss of cell viability in nearly all cultures tested”. In addition, the “effect of duration of drug exposure on cell cycle” value in series [2] (washed out after 3 hours versus left on, 7996 GNS, 8279 GNS, 7996 ML, 8565 ML) is on record as “less effect when washed out after 3 hours”. The “tumor response in cohort 6” value in series [3] (30 mg/m^2, one of two patients, after 1 cycle of treatment) is given as “stable disease”. For the same substance, in series [3] (GBM, n = 8), the “Tumor Response, PR (number of patients)” value was “PR (1); SD (1)” and the “Tumor Response, SD (number of patients)” value is recorded as “PR (1); SD (1)”. In addition, the “Tumor Response, Overall” value in series [3] (GBM, n = 8, prior Surgery/XRT/TMZ/BEV) was “Overall = 25%”. Also, the MRI scan findings entry in series [3] (Patient #26, T=64 days versus T=0, after two cycles) was “Thick confluent regions of abnormal enhancement have diminished”. Also, the “stability of stock solution” value in series [4] (4° C.) stood at 24 h. In addition, in series [4] (room temperature), the “stability of stock solution” value is 4 h. For the same substance, in the series on GBM (GBM, Eagan (1979), Stupp (2005)), the “Median O.S. (XRT + Chemo)” value was 67 weeks. Moreover, the “efficacy in combination with radiation versus radiation alone” value in the series on GBM (cumulative IV dose of 125 mg/m^2 in a 35 day cycle, brain cancer, Eagan 1979) was “superior to radiation alone”. Moreover, the “pharmacokinetics, dose dependence” value in series [5] (dose cohorts of the current trial) is listed as “linear”. The substance also showed a plasma half-life in series [5] (i.v., patients) of 1 to 2 h.
